Data reported in PubChem BioAssay AID200 (DTP/NCI, 2004).
“And” between values parts separate entries of the source, which are not always exact repeats. Equal values may be shown once. Inconclusive results and toxic doses are left out.

Tested on: B6C3F1 mice, B16 melanoma ip, median survival T/C
Test: NCI In Vivo Anticancer Drug Screen. Data for tumor model B16 Melanoma (intraperitoneal) in B6C3F1 mice
Settings: endpoint: median survival time, schedule: Q01DX009 (ip), higher = longer survival
Method in brief: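 Transplantable tumor in mice; treated vs vehicle control groups; survival or tumor size measured; value = T/C ratio.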

[1] = dose: 3.12 mg/kg/injection, vehicle: saline with Tween-80
[2] = dose: 6.25 mg/kg/injection, vehicle: saline with Tween-80
[3] = dose: 12.5 mg/kg/injection, vehicle: saline with Tween-80
[4] = dose: 25.0 mg/kg/injection, vehicle: saline with Tween-80
[5] = dose: 50.0 mg/kg/injection, vehicle: saline with Tween-80
[6] = dose: 25.0 mg/kg/injection, vehicle: saline
[7] = dose: 50.0 mg/kg/injection, vehicle: saline
[8] = dose: 100.0 mg/kg/injection, vehicle: saline
[9] = dose: 200.0 mg/kg/injection, vehicle: saline
[10] = dose: 400.0 mg/kg/injection, vehicle: saline

With `ClC1C(Cl)C(Cl)C(Cl)C(Cl)C1Cl` (stereo not given) the T/C [1] was 88 % of control and 90 % of control, the T/C [2] was 109 % of control and 91 % of control and the T/C [3] was 107 % of control. The T/C (dose: 25.0 mg/kg/injection, vehicle: Klucel (hydroxypropylcellulose) (HPC)) was 100 % of control, the T/C [4] was 92 % of control and 97 % of control and the T/C (dose: 50.0 mg/kg/injection, vehicle: Klucel (hydroxypropylcellulose) (HPC)) was 100 % of control. The T/C [5] was 93 % of control, the T/C (dose: 100.0 mg/kg/injection, vehicle: Klucel (hydroxypropylcellulose) (HPC)) was 105 % of control and the T/C (dose: 200.0 mg/kg/injection, vehicle: Klucel (hydroxypropylcellulose) (HPC)) was 111 % of control. The T/C (dose: 400.0 mg/kg/injection, vehicle: Klucel (hydroxypropylcellulose) (HPC)) was 107 % of control.
In the case of `O=c1ncccn1[C@@H]1O[C@H](CO)[C@H](O)C1O` (stereo not given in full), the T/C [6] is reported as 122 % of control, the T/C [7] is reported as 116 % of control and 107 % of control and the T/C [8] is reported as 122 % of control. The T/C [9] was 120 % of control and 122 % of control and the T/C [10] was 180 % of control.
With `C=C1C(=O)[C@]23C[C@H]1CC[C@H]2[C@@]12CO[C@@H](O)[C@@H]1C(C)(C)[C@@H](O)C[C@@H]2OC3=O` the T/C [4] was 102 % of control and the T/C [5] was 102 % of control.
`Nc1ccc(S(=O)(=O)Nc2cnc3c(Cl)cccc3n2)cc1` was tested, and the T/C (dose: 50.0 mg/kg/injection, vehicle: DMSO) was 97 % of control, the T/C (dose: 100.0 mg/kg/injection, vehicle: DMSO) was 100 % of control and the T/C (dose: 200.0 mg/kg/injection, vehicle: DMSO) was 116 % of control. The T/C (dose: 400.0 mg/kg/injection, vehicle: DMSO) was 105 % of control.
`N#Cc1ccc(NC(=O)Nc2nncs2)cc1` was tested, and the T/C [3] was 120 % of control and 105 % of control, the T/C [4] was 118 % of control and 107 % of control and the T/C [5] was 111 % of control.
With `CSc1ccc2c(c1)C(N1CCN(C)CC1)Cc1ccccc1S2` (stereo not given) the T/C (dose: 1.56 mg/kg/injection, vehicle: saline with Tween-80) was 105 % of control, the T/C [1] was 108 % of control and the T/C [2] was 105 % of control. The T/C [3] was 98 % of control, the T/C [4] was 94 % of control and the T/C [5] was 88 % of control.
For `O=S(O)O`, the T/C [7] was 107 % of control, the T/C [8] was 115 % of control and the T/C [9] was 98 % of control. For the same compound, the T/C [10] was 102 % of control.
`CCC(C)C(O)C(C)C(=O)C(C)/C=C(\C)CC(C)C1OC(=O)C1C` (stereo not given) was tested, and the T/C (dose: 0.25 mg/kg/injection, vehicle: saline + alcohol) was 96 % of control, the T/C (dose: 0.5 mg/kg/injection, vehicle: saline + alcohol) was 98 % of control and 104 % of control and the T/C (dose: 1.0 mg/kg/injection, vehicle: saline + alcohol) was 99 % of control and 101 % of control. The T/C (dose: 2.0 mg/kg/injection, vehicle: saline + alcohol) was 96 % of control and 98 % of control.
In the case of `CC1OC2CC(O)C1(O)C1=C2C(O)=C(C(N)=O)C(=N)C1=O` (stereo not given), the T/C (dose: 0.31 mg/kg/injection, vehicle: saline) is reported as 106 % of control, the T/C (dose: 0.62 mg/kg/injection, vehicle: saline) is reported as 98 % of control and the T/C (dose: 1.25 mg/kg/injection, vehicle: saline) is reported as 104 % of control. For the same compound, the T/C (dose: 2.5 mg/kg/injection, vehicle: saline) was 98 % of control and the T/C (dose: 5.0 mg/kg/injection, vehicle: saline) was 102 % of control.
In the case of `CCCC1C/C=C/C=C/C=C/C=C/C(OC2OC(C)C(O)C(N)C2O)CC(O)C(C(=O)O)C(O)CC(=O)CC(O)CCCC(=O)CC(O)C(CC)C(=O)O1` (stereo not given), the T/C (dose: 2.5 mg/kg/injection, vehicle: Klucel (hydroxypropylcellulose) (HPC)) is reported as 114 % of control, the T/C (dose: 5.0 mg/kg/injection, vehicle: Klucel (hydroxypropylcellulose) (HPC)) is reported as 106 % of control and the T/C (dose: 10.0 mg/kg/injection, vehicle: Klucel (hydroxypropylcellulose) (HPC)) is reported as 104 % of control. For the same compound, the T/C (dose: 20.0 mg/kg/injection, vehicle: Klucel (hydroxypropylcellulose) (HPC)) was 89 % of control.
`COc1cc2oc3c(C)c(=O)cc4oc(-c5ccccc5)cc(c2c2c1CCC(c1ccccc1)O2)c43` (stereo not given) was tested, and the T/C (dose: 0.85 mg/kg/injection, vehicle: Klucel (hydroxypropylcellulose) (HPC)) was 105 % of control, the T/C (dose: 1.75 mg/kg/injection, vehicle: Klucel (hydroxypropylcellulose) (HPC)) was 101 % of control and the T/C (dose: 3.5 mg/kg/injection, vehicle: Klucel (hydroxypropylcellulose) (HPC)) was 103 % of control. For the same compound, the T/C (dose: 7.0 mg/kg/injection, vehicle: Klucel (hydroxypropylcellulose) (HPC)) was 95 % of control and 106 % of control, the T/C (dose: 14.0 mg/kg/injection, vehicle: Klucel (hydroxypropylcellulose) (HPC)) was 97 % of control and 104 % of control and the T/C (dose: 28.0 mg/kg/injection, vehicle: Klucel (hydroxypropylcellulose) (HPC)) was 121 % of control.
With `CN(Cc1cnc2nc(N)nc(N)c2n1)c1c(Cl)cc(C(=O)NC(CCC(=O)O)C(=O)O)cc1Cl` (stereo not given) the T/C (dose: 12.5 mg/kg/injection, vehicle: saline) was 96 % of control and the T/C [6] was 91 % of control.
